Data: patent US7276527B2, “5-pyridyl-1,3-azole compounds, process for producing the same and use thereof” (Takeda Pharmaceutical Company Limited, priority 1999, dated 2007)

Target: T1, human adenosine A3 receptor (Homo sapiens, UniProt P0DMS8)
T1 construct: expressed in transfected cells; membrane fraction
T1 sequence (P0DMS8 1-318): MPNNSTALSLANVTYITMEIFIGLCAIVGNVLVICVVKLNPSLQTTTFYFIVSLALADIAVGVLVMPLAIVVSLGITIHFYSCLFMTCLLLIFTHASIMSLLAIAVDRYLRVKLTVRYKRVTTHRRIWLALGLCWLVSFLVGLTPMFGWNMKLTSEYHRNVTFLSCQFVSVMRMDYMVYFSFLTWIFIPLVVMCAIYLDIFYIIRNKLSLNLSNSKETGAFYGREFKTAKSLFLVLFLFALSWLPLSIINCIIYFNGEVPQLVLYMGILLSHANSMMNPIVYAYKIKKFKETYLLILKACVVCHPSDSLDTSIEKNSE
Assay: Adenosine A3 receptor binding test
Conditions: membrane fraction of A3AR/CHO strain, [3H]-NECA 10 nM, room temperature 1 hour; read-out: IC50 (concentration necessary for decreasing an amount of binding of [3H]-NECA to the membrane fraction by 50%)
Protocol: Genetic procedures were according to a method described in Molecular Cloning, published by Cold Spring Harbor, Laboratory, 1989 or a method described in the attached protocol of the reagent.
1) Cloning of Human Adenosine A3 Receptor
Cloning of an adenosine A3 receptor gene was performed from human brain cDNA by a PCR method. A PCR reaction was performed with a DNA thermal cycler 480 (Perkin Elmer) by using 1 ng of brain cDNA (Toyobo, QUICK-Clone cDNA) as a template, adding each 50 pmol of a primer set 5′-[…]-3′ (SEQ ID NO: 1) and 5′-[…]-3′ (SEQ ID NO: 2) made by reference to adenosine A3 receptor gene base sequence reported by Salvatore et al. (Proc. Natl. Acad. Sci. U.S.A., 90:10365-10369, 1993) and employing Takara LA PCR Kit Ver. 2 (Takara Shuzo) (reaction conditions: 35 cycles of 1 minute at 95° C., 1 minute at 66° C., 2 minutes at 75° C.). The resulting PCR product was subjected to agarose gel electrophoresis and 1.0 kb of DNA fragment was recovered and, thereafter, an adenosine A3 receptor gene was cloned using Original TA Cloning Kit (Funakoshi).
Next, the resulting plasmid was digested with a restriction enzyme XbaI (Takara Shuzo), treated with T4 DNA polymerase (Takara Shuzo) into end-blunted fragments and further digested with SalI (Takara Shuzo) to obtain adenosine A3 receptor gene fragments.
2) Preparation of a Plasmid for Expressing of Human Adenosine A3 Receptor […]

## Cc1cc(C)cc(-c2nc(N)sc2-c2ccnc(OCc3ccccc3)c2)c1 [Example 1, [4-(3,5-dimethylphenyl)-5-(2-phenylmethyloxy-4-pyridyl)-1,3-thiazol-2-yl]amine]
  IC50: 11.6 nM
